Test results from patent US7101915B1, “P-terphenyl compounds” (Shionogi & Co., Ltd., priority 1996, dated 2006).
Marks after values point to notes of the source that are not given here.

Legend:
[1] = system: BGG-specific IgE in a serum; assay: Suppressive effect on the antibody production against bovine γ globulin (BGG), sandwich ELISA; type: in vivo, BALB/c mice; conditions: 50 mg/kg p.o. every day, serum after 21 days
Protocol: Experiment 3 Suppressive Effect on the Antibody Production Against Bovine γ Globulin (BGG)
On an immunizing day and 7 days after, 50 μg of BGG was subcutaneously inoculated to backs of BALB/c mice (male, 6-8 weeks old) for inducing an immune reaction. After the compound of the present invention was dissolved or suspended in N, N-dimethylacetoamide, the mixture was diluted with miglyol 812 neutral oil. A proper volume of the compound was orally administered (p.o.) to mice every day from the next day of the immunizing. A two hundredth weight to body weight of miglyol was administered to mice in a control group. After 21 days, blood was drawn from each mouse and a serum was separated. BGG-specific IgE in a serum was measured by the sandwich ELISA method using a BGG-coating plate. The suppressive rate of IgE production was calculated from the dilution rate of the serum which has the same absorption intensity as that of the control group for judging the effect of the compound of the present invention.

[2] = system: anti-OVA IgE antibody titer (PCA titer); assay: Suppressive effect on the IgE production against ovalbumin (OVA), PCA titer; type: in vivo, BALB/c mice; conditions: 40 mg/kg orally for 10 days; untreated group 9-12
Protocol: Experiment 4 Suppressive Effect on the IgE Production Against Ovalbumin (OVA)
BALB/c mice (female, 8-10 weeks old) and Wistar rats (female, 8-10 weeks old) which were bought from Japan SLC, Inc. (Shizuoka) were used.
BALB/c mice were immunized by an intraperitoneal administration of 0.2 ml suspension of 2 μg of ovalbumin (OVA) and 2 mg of aluminium hydroxide gel in physiological saline. After 10 days, blood was drawn from hearts, sera were separated and stocked at −40° C. till the measurement of an IgE antibody titer.
After the compound of the present invention was dissolved or suspended in N, N-dimethylacetoamide, the mixture was diluted 20 times with miglyol 812 neutral oil. The obtained solution was orally administered to mice at 0.1 ml per mouse. The administration was continued for 10 days from the immunizing day to the day before drawing blood. IPD-1151-T (a compound described in Jpn. Pharmacol. (1993) 61, 31–39) and a compound No. 36 (a compound 36 described in J. Med. Chem. (1997) 40: 395–407) were examined as controls by the same method.
4) Measurement of Anti-OVA IgE Antibody Titer (PCA Titer)
The samples 2-fold diluted with physiological saline were prepared from the obtained mouse serum and each 50 μl of the solution was intradermally injected to backs of Wistar rats which previously hair cut. After 24 hours, a passive cutaneous anaphylaxis reaction (PCA) was induced by an intravenous injection of 0.5 ml of physiological saline containing 1 mg of OVA and 5 mg of Evans' blue dye. After 30 minutes, the rats were sacrified and the highest dilution rate of the serum giving bluing with a diameter of more than 5 mm was recorded as the PCA titer. For example, when a serum is positive for the PCA reaction till […], the anti-OVA IgE antibody titer of the mouse is defined as 7.

[3] = system: IgE production of mouse spleen lymphocytes (lipopolysaccharide, IL-4); assay: Suppressive effect on antibody production of mouse spleen lymphocytes: IgE; type: cell-based, BALB/c (nu/nu) mice; conditions: Lymphocyte, 240 h, LPS + IL-4, 10 days
Protocol: (§1) Experiment 6 Suppressive Effect on Antibody Production of Mouse Spleen Lymphocytes 1. Experimental Method 1) Animals
(§2) BALB/c (nu/nu) mice were bought from Japan SLC, Inc. (Shizuoka) and 7 weeks old-male mice were used.
(§3) RPMI medium (Nissui Pharmaceutical Co., Ltd.) containing 10% fetal bovine serum (HyClone Lab.) inactivated at 56° C. for 30 minutes, penicillin (100 units/ml) and streptomycin (100 μg/ml) (GIBCO) was used for experiments.
(§4) Each of the compounds was dissolved in dimethylsulfoxide (Nakaraitesk) at […] and diluted with the medium to adjust a final concentration to 0.1 μg/ml −10 μg/ml.
4) Mouse Spleen Lymphocytes
A spleen of mouse was taken out and put in a cultivating schale which was filled with Hanks' solution. The spleen was crushed and the cells were pushed out from the organ and filtered through a metal mesh (200 mesh). After the collected cell suspension was washed by centrifugation with sterile Hanks' solution (Nissui Pharmaceutical Co., Ltd.), sterile distilled water was added. […]
(§5) In 96-well cultivating plate (Sumitomo Bakelite Company Limited) mouse spleen lymphocytes were inoculated 2×10^5 cells per well. […] After the cultivation for 10 days, the amount of the antibody in a supernatant was quantified by ELISA method.
6) Quantification of the IgE Antibody
A commercial mouse IgE EIA kit (Yamasa Shoyu Co., Ltd.) was used for the quantification of the IgE. […]

[4] = system: IgG2a production of mouse spleen lymphocytes; assay: Suppressive effect on antibody production of mouse spleen lymphocytes: IgG2a; type: cell-based, BALB/c (nu/nu) mice; conditions: Lymphocyte, 240 h, LPS + IL-4, 10 days
Protocol: as §1, §2, §3, §4
(§6) 4) Mouse Spleen Lymphocytes […]
as §5
(§7) 7) Quantification of the IgG1, IgG2a and IgM Antibodies
(§8) In 96-well plate 50 μl of 10 μg/ml Goat Anti-Mouse Ig (IgM+G+A, H+ L) (Southern Biotechnology, Birmingham) was added and the plate was coated at 4° C. overnight. […] After washing three times with PBST, 100 μl of culture supernatant which was diluted with PBS or 100 μl of an antibody standard solution (Mouse IgG1 standard, Mouse IgG2a standard, Mouse IgM standard, BETHYL Laboratories) of a pre-determined concentration was added and incubated for 1 hour. […]

[5] = system: IgM production of mouse spleen lymphocytes; assay: Suppressive effect on antibody production of mouse spleen lymphocytes: IgM; type: cell-based, BALB/c (nu/nu) mice; conditions: Lymphocyte, 240 h, LPS + IL-4, 10 days
Protocol: as §1, §2, §3, §4, §6, §5, §7, §8

## Cc1cc(-c2ccc(OCC=C(Cl)Cl)c(F)c2)c(C)cc1-c1ccc(O)cc1 [Compound I-963]
[1]
  Suppressive rate of antigen-specific IgE: >99%
[2]
  PCA Titer: 3.6**
[3]
  IC50: 0.00026 ng/mL
[4]
  IC50: 3.6 µg/mL
[5]
  IC50: 3.5 µg/mL
